Assay [1] deals with yeast atx1Δ. The assay can be described thus: Respiratory growth rescue of atx1Δ yeast. The class given is cell-based, Saccharomyces cerevisiae. As to conditions: non-fermentable media, 37° C. As for the experimental part: Yeast Strains and Culture Conditions. The authenticity of yeast strains was confirmed by PCR as well as by replica plating on dropout plates. Yeast cells were cultured in standard YP growth media including YPD (1% yeast extract, 2% peptone and 2% glucose), YPGal (2% galactose), YPGE (3% glycerol+1% ethanol), or synthetic media (SC glucose). For qualitative growth measurement, 10-fold serial dilutions of overnight cultures were spotted on YPD or YPGE plates and incubated at 30° C. and 37° C. for the indicated period. Growth in liquid media was measured spectrophotometrically at 600 nm.
ES Rescues Many Different Yeast Mutants with Impaired Copper Metabolism. To test the specificity of ES mediated rescue, a number of yeast mutants of genes required for maintaining cellular and mitochondrial copper homeostasis were shortlisted. Genes were prioritized based on their evolutionary conservation, presence of pathogenic mutations in humans, and/or the existence of a related mouse phenotype (Table 3, shown below). […] Most of the yeast mutants were rescued with ES supplementation, albeit to different degrees, reflecting their distinct roles in cellular and mitochondrial copper homeostasis. […]

In assay [2] the test system is Ctrl^−/− mouse embryonic fibroblasts (MEFs). Put plainly: COX1 levels in Ctr1 knockout mouse embryonic fibroblasts. The class given is cell-based. As to conditions: increasing ES doses. As to the method:
Mammalian Cell Culture. The human control MCH46 and SCO2 patient fibroblasts as well as the rat H9c2 control and Ctr1^−/− cardiomyocytes were cultured in high glucose Dulbecco's modified Eagle's medium (DMEM) supplemented with 10% fetal bovine serum (Sigma) and 1 mM sodium pyruvate (Life Technologies). The mouse embryonic fibroblasts were cultured in DMEM 10% FBS, 1 mM sodium pyruvate, 1× minimum essential medium non-essential amino acids (MEM NEAA; Life Technologies 11140), 50 μg/mL uridine, and 1× Pen Strep Glutamine (Life Technologies 10378). All cell lines were cultured under 5% CO2 at 37° C. and were treated with indicated concentrations of ES for 3-6 days before harvesting. Whole cell protein was extracted in lysis buffer (BP-115, Boston BioProducts) supplemented with protease inhibitor cocktail (Roche Diagnostics) and the protein concentrations were determined by BCA assay (Thermo Scientific).
Immunoblotting and In-gel Activities. Sodium dodecyl sulfate polyacrylamide gel electrophoresis (SDS-PAGE) and Blue Native PAGE (BN-PAGE) were performed to separate denatured and native protein complexes, respectively. For SDS-PAGE, mitochondrial lysate ([…]) was separated on NuPAGE 4-12% Bis-Tris gels (Life Technologies, Carlsbad, CA). For BN-PAGE, yeast mitochondria were solubilized in buffer containing 1% digitonin (Life Technologies) by incubating for 15 min at 4° C. […]

One compound from patent US20240285555A1, “COMPOSITIONS FOR THE TREATMENT OF COPPER DEFICIENCY AND METHODS OF USE” (priority 2018, published 2024) can be followed below.

Consider `CN(NC(=O)CC(=O)NN(C)C(=S)c1ccccc1)C(=S)c1ccccc1` [ES, elesclomol], for which the “rescue of respiratory growth” value in assay [1] is reported as “rescue”. For the same compound, in assay [2], the COX1 levels entry is given as “dose dependent rescue”.
